Consider 12 compounds from patent publication US20260356856A1, “KRAS G12S AND G12C INHIBITORS” (MIRATI THERAPEUTICS, INC., priority 2023, published 2026).

By IC50 is commonly meant the midpoint of a concentration-inhibition curve. High values mean lower potency, low ones higher potency.

Experiment [1] has as its target T1, KRas-mediated phosphorylation of ERK in A549 cells (Homo sapiens, UniProt P01116, G12S).
T1 construct: pERK HTRF read-out
Briefly: Inhibition of KRas-mediated phosphorylation of ERK (HTRF), A549 cells. The note with it: HTRF pERK, 3 h incubation. The experiment is classed as cell-based. A general note: In TR-FRET formats the signal depends on donor and acceptor labels being close together.

The target in experiment [2] is T2, KRas-mediated phosphorylation of ERK in MKN1 cells (Homo sapiens, UniProt P01116).
T2 construct: pERK HTRF read-out
T2 sequence (P01116 1-188 isoform P01116-2): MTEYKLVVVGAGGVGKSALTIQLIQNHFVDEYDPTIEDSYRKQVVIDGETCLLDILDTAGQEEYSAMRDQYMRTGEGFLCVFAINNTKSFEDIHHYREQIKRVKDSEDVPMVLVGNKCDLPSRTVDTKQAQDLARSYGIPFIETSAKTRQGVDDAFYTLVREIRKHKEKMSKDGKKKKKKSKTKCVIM
Briefly: Inhibition of KRas-mediated phosphorylation of ERK (HTRF), MKN1 cells. The experiment is classed as cell-based. The note with it: MKN1 cells (KRas WT); HTRF pERK; 3 h incubation. On the procedure: Inhibition of KRas Phosphorylation of ERK (HTRF) by Exemplary Compounds of Formula (Ia) or (Ib)
Cisbio HTRF Advanced pERK Assay Catalog #64AERPEH • Cells: MKN1, PSN1 • Procedure: • 1. Day 1: Seed 6,000 cells/well −25 μl/well in 384-well white solid bottom plate; RPM1_10% FBS. Incubate overnight at 37 °C/5% CO2. • 2.

Experiment [3] concerns the target T3, KRas WT (Homo sapiens, UniProt P01116).
T3 construct: Biotinylated KRas (corresponding to amino acids 1-169, produced at Accelegan Inc.); biotin (biotinylated); purchased Accelegan Inc
Briefly: KRas binding assay, TR-FRET displacement of Cy5 labelled tracer. The note with it: 60-minute incubation at room temperature, 1% DMSO, pH 7.5. Summed up: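 Compound competes with tracer for biotin-labelled KRas (amino acids 1-169) bound to terbium-streptavidin. Incubation runs 60 minutes at room temperature, final DMSO 1%. IC50 values derive from a 4-parameter fit.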

Experiment [4] concerns the target T4, KRas G12C (Homo sapiens, UniProt P01116, G12C).
T4 construct: Biotinylated KRas (corresponding to amino acids 1-169, produced at Accelegan Inc.); biotin (biotinylated); purchased Accelegan Inc
The experiment is described as above. The note with it: 60-minute incubation at room temperature, 1% DMSO, pH 7.5. Summed up:
(§1)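 Tb-streptavidin captured biotinylated KRas (1-169) in HEPES 50 mM, DTT 1 mM, MgCl2 5 mM, Tween-20 0.005% (pH 7.5), alongside tracer and compound at 1% final DMSO. One hour at RT, then read; IC50 from 4-parameter POC fit.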

In experiment [5] the target is T5, KRas G12S (Homo sapiens, UniProt P01116, G12S).
T5 construct: Biotinylated KRas (corresponding to amino acids 1-169, produced at Accelegan Inc.); biotin (biotinylated); purchased Accelegan Inc
T5 sequence (P01116 1-169 isoform P01116-2 G12S): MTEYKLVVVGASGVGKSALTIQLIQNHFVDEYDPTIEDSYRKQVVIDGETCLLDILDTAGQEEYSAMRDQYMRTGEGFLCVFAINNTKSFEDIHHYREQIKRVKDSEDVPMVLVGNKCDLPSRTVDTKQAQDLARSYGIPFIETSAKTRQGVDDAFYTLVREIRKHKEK
Described as above. The note with it: 60-minute incubation at room temperature, 1% DMSO, pH 7.5. Summed up:
as §1

T3 sequence (P01116 1-169 isoform P01116-2): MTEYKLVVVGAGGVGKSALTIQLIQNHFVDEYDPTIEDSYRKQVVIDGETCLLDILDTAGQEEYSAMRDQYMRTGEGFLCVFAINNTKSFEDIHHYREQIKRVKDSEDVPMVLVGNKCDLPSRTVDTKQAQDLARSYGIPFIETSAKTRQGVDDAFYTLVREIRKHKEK
T4 sequence (P01116 1-169 isoform P01116-2 G12C): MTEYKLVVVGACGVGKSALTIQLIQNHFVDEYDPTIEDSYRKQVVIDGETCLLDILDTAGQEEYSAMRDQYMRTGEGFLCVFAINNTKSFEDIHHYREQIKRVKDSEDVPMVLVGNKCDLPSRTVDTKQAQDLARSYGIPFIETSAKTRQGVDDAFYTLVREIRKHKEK
T1 sequence (P01116 1-188 isoform P01116-2 G12S): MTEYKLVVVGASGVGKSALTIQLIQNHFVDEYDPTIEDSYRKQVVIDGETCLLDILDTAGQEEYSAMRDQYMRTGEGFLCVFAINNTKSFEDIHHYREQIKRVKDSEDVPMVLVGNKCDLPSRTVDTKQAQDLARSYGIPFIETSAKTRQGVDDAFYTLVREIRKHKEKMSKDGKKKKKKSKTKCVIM

Regarding `CCc1c(F)ccc2cc(O)cc(-c3ncc4c(N5C[C@H](C(=O)n6ccc(C)n6)[C@@H](C)C5)nc(OC[C@@]56CCCN5C[C@H](F)C6)nc4c3F)c12` [Example 96, ((3R,4R)-1-(7-(8-ethyl-7-fluoro-3-hydroxynaphthalen-1-yl)-8-fluoro-2-(((2R,7aS)-2-fluorotetrahydro-1H-pyrrolizin-7a(5H)-yl)methoxy)pyrido[4,3-d]pyrimidin-4-yl)-4-methylpyrrolidin-3-yl)(3-methyl-1H-pyrazol-1-yl)methanone], the half-inhibitory concentration (IC50) is more than 10000 nM in experiment [1]; more than 10000 nM in experiment [2]; 162 nM in experiment [3]; 375 nM in experiment [4]; 339 nM in experiment [5].
Take `CCc1c(F)ccc2cc(O)cc(-c3ncc4c(N5CCC(C(=O)n6ccc(C)n6)C6CC65)nc(OC[C@@]56CCCN5C[C@H](F)C6)nc4c3F)c12` (stereo partly drawn) [Example 97, (2-(7-(8-ethyl-7-fluoro-3-hydroxynaphthalen-1-yl)-8-fluoro-2-(((2R,7aS)-2-fluorotetrahydro-1H-pyrrolizin-7a(5H)-yl)methoxy)pyrido[4,3-d]pyrimidin-4-yl)-2-azabicyclo[4.1.0]heptan-5-yl)(3-methyl-1H-pyrazol-1-yl)methanone]: the concentration for half-maximal inhibition (IC50) in experiment [1] was 2120 nM; in experiment [2], 2850 nM; in experiment [3] it was 125 nM; in experiment [4], 395 nM; in experiment [5], 201 nM.
The matching figures for `CCc1c(F)ccc2cc(O)cc(-c3ncc4c(N5CC6CC(C(=O)n7ccc(C)n7)C6C5)nc(OC[C@@]56CCCN5C[C@H](F)C6)nc4c3F)c12` (stereo partly drawn) [Example 98, (3-(7-(8-ethyl-7-fluoro-3-hydroxynaphthalen-1-yl)-8-fluoro-2-(((2R,7aS)-2-fluorotetrahydro-1H-pyrrolizin-7a(5H)-yl)methoxy)pyrido[4,3-d]pyrimidin-4-yl)-3-azabicyclo[3.2.0]heptan-6-yl)(3-methyl-1H-pyrazol-1-yl)methanone]: 61 nM, 2490 nM, 178 nM, 73 nM and 20 nM.
The matching figures for `CCc1c(F)ccc2cc(O)cc(-c3ncc4c(N5C[C@H]6C[C@@H](C5)[C@H](C(=O)n5ccc(C)n5)C6)nc(OC[C@@]56CCCN5C[C@H](F)C6)nc4c3F)c12` [Example 100, ((1S,5R,6R)-3-(7-(8-ethyl-7-fluoro-3-hydroxynaphthalen-1-yl)-8-fluoro-2-(((2R,7aS)-2-fluorotetrahydro-1H-pyrrolizin-7a(5H)-yl)methoxy)pyrido[4,3-d]pyrimidin-4-yl)-3-azabicyclo[3.2.1]octan-6-yl)(3-methyl-1H-pyrazol-1-yl)methanone]: more than 10000 nM, more than 10000 nM, 7690 nM, 4840 nM and 4720 nM.
Take `CCc1c(F)ccc2cc(O)cc(-c3ncc4c(N5CC(C(=O)n6ccc(C)n6)C(C)(C)C5)nc(OC[C@@]56CCCN5C[C@H](F)C6)nc4c3F)c12` (stereo partly drawn) [Example 101, (1-(7-(8-ethyl-7-fluoro-3-hydroxynaphthalen-1-yl)-8-fluoro-2-(((2R,7aS)-2-fluorotetrahydro-1H-pyrrolizin-7a(5H)-yl)methoxy)pyrido[4,3-d]pyrimidin-4-yl)-4,4-dimethylpyrrolidin-3-yl)(3-methyl-1H-pyrazol-1-yl)methanone]: the IC50 was more than 10000 nM in experiment [1]; 5550 nM in experiment [2]; 716 nM in experiment [3]; 784 nM in experiment [4]; 934 nM in experiment [5].
Take `C=CC1(C(=O)n2ccc(C)n2)CCN(c2nc(OC[C@@]34CCCN3C[C@H](F)C4)nc3c(F)c(-c4cc(O)cc5ccc(F)c(CC)c45)ncc23)CC1` [Example 102, (1-(7-(8-ethyl-7-fluoro-3-hydroxynaphthalen-1-yl)-8-fluoro-2-(((2R,7aS)-2-fluorotetrahydro-1H-pyrrolizin-7a(5H)-yl)methoxy)pyrido[4,3-d]pyrimidin-4-yl)-4-vinylpiperidin-4-yl)(3-methyl-1H-pyrazol-1-yl)methanone]: the IC50 in experiment [1] was 1930 nM; in experiment [2], more than 10000 nM; in experiment [3] it was 5920 nM; in experiment [4], 252 nM; in experiment [5] it was 2140 nM.
The matching figures for `CCc1c(F)ccc2cc(O)cc(-c3ncc4c(NC[C@@H]5C[C@@H]5C(=O)n5ccc(C)n5)nc(OC[C@@]56CCCN5C[C@H](F)C6)nc4c3F)c12` [Example 103, ((1S,2R)-2-(((7-(8-ethyl-7-fluoro-3-hydroxynaphthalen-1-yl)-8-fluoro-2-(((2R,7aS)-2-fluorotetrahydro-1H-pyrrolizin-7a(5H)-yl)methoxy)pyrido[4,3-d]pyrimidin-4-yl)amino)methyl)cyclopropyl)(3-methyl-1H-pyrazol-1-yl)methanone]: 167 nM, 351 nM, 34 nM, 37 nM and 35 nM.
Turning to `CCc1c(F)ccc2cc(O)cc(-c3ncc4c(N5CC6CCC(C(=O)n7ccc(C)n7)C6C5)nc(OC[C@@]56CCCN5C[C@H](F)C6)nc4c3F)c12` (stereo partly drawn) [Example 104, (2-(7-(8-ethyl-7-fluoro-3-hydroxynaphthalen-1-yl)-8-fluoro-2-(((2R,7aS)-2-fluorotetrahydro-1H-pyrrolizin-7a(5H)-yl)methoxy)pyrido[4,3-d]pyrimidin-4-yl)octahydrocyclopenta[c]pyrrol-4-yl)(3-methyl-1H-pyrazol-1-yl)methanone], the IC50 came to 1580 nM in experiment [1]; 931 nM in experiment [2]; 77 nM in experiment [3]; 295 nM in experiment [4]; 176 nM in experiment [5].
On to `CCc1c(F)ccc2cc(O)cc(-c3ncc4c(N5C[C@H]6CC[C@@]6(C(=O)n6ccc(C)n6)C5)nc(OC[C@@]56CCCN5C[C@H](F)C6)nc4c3F)c12` [Example 105, ((1S,5S)-3-(7-(8-ethyl-7-fluoro-3-hydroxynaphthalen-1-yl)-8-fluoro-2-(((2R,7aS)-2-fluorotetrahydro-1H-pyrrolizin-7a(5H)-yl)methoxy)pyrido[4,3-d]pyrimidin-4-yl)-3-azabicyclo[3.2.0]heptan-1-yl)(3-methyl-1H-pyrazol-1-yl)methanone], for which the half-inhibitory concentration (IC50) in experiment [1] was more than 10000 nM; in experiment [2] it was 517 nM; in experiment [3], 58 nM; in experiment [4], 35 nM; in experiment [5] it was 50 nM.
Turning to `CCc1c(F)ccc2cc(O)cc(-c3ncc4c(N5CC6CCC(C(=O)n7ccc(C)n7)(C6)C5)nc(OC[C@@]56CCCN5C[C@H](F)C6)nc4c3F)c12` (stereo partly drawn) [Example 106, (3-(7-(8-ethyl-7-fluoro-3-hydroxynaphthalen-1-yl)-8-fluoro-2-(((2R,7aS)-2-fluorotetrahydro-1H-pyrrolizin-7a(5H)-yl)methoxy)pyrido[4,3-d]pyrimidin-4-yl)-3-azabicyclo[3.2.1]octan-1-yl)(3-methyl-1H-pyrazol-1-yl)methanone], the IC50 in experiment [1] worked out at 584 nM; in experiment [2] it was 529 nM; in experiment [3], 40 nM; in experiment [4], 22 nM; in experiment [5], 14 nM.
With `C=CC1(C(=O)n2ccc(C)n2)CCN(c2nc(OC[C@@]34CCCN3C[C@H](F)C4)nc3c(F)c(-c4cc(O)cc5ccc(F)c(CC)c45)ncc23)C1` (stereo partly drawn) [Example 107, (1-(7-(8-ethyl-7-fluoro-3-hydroxynaphthalen-1-yl)-8-fluoro-2-(((2R,7aS)-2-fluorotetrahydro-1H-pyrrolizin-7a(5H)-yl)methoxy)pyrido[4,3-d]pyrimidin-4-yl)-3-vinylpyrrolidin-3-yl)(3-methyl-1H-pyrazol-1-yl)methanone], the IC50 was 2070 nM in experiment [1]; more than 10000 nM in experiment [2]; 1060 nM in experiment [3]; 37 nM in experiment [4]; 513 nM in experiment [5].
The matching figures for `C#CCC1(C(=O)n2ccc(C)n2)CCN(c2nc(OC[C@@]34CCCN3C[C@H](F)C4)nc3c(F)c(-c4cc(O)cc5ccc(F)c(CC)c45)ncc23)C1` (stereo partly drawn) [Example 108, (1-(7-(8-ethyl-7-fluoro-3-hydroxynaphthalen-1-yl)-8-fluoro-2-(((2R,7aS)-2-fluorotetrahydro-1H-pyrrolizin-7a(5H)-yl)methoxy)pyrido[4,3-d]pyrimidin-4-yl)-3-(prop-2-yn-1-yl)pyrrolidin-3-yl)(3-methyl-1H-pyrazol-1-yl)methanone]: 2000 nM, more than 10000 nM, 1040 nM, 339 nM and 1320 nM.
